Results on one substance are retold here after PMC3493588 (2012).

The test system of this assay is d(CCG)8C (KR-2) (DNA, single strand) CCGCCGCCGCCGCCGCCGCCGCCGC
Put plainly: tryptophan fluorescence quenching titration. Particulars: Na+ (0.01 M NaCl); 0.02 M Hepes, pH 7.5-7.7, 0.0001 M EDTA, 20 °C; half salt-reversal at 0.06 M Na+; weaker at higher NaCl.

In the case of H-RWRWKL-NH2, the binding result is listed as “yes”.
